Structures can show the parent of a compound that is named as a salt.
Experiments:
[1] = system: anesthetized dog; test: Dog in vivo blood and intraurethral pressure assay; conditions: i.v., anesthetized mongrel dogs
Experimental: The following describes an in vivo assay for measuring the relative effect of test compounds on hypogastric nerve stimulation-induced increases in intraurethral pressure and phenylephrine-induced increases in diastolic blood pressure in anesthetized dog.
Mongrel dogs (10 to 20 kg) were fasted for 12 to 18 hours and anesthetized with […] (35 mg/kg, i.v.). An endotracheal tube was inserted and thereafter the lungs were mechanically ventilated with room air. The right femoral vein was isolated and cannulated with two polyethylene cannulae, one for the administration of a continuous infusion of phenobarbital sodium (5 to 10 mg/kg/hr) and the other for bolus administration of test substances. The right femoral artery was isolated and cannulated to the abdominal aorta with a fluid filled polyethylene cannula connected to an external pressure transducer for monitoring diastolic aortic pressure (DAP). The bladder was exposed via a ventral midline abdominal incision and emptied of urine through a 22 gauge needle. The bladder was cannulated through a stab incision with a water filled balloon catheter connected to an external pressure transducer for monitoring prostatic intraurethral pressure (IUP). The right hypogastric nerve (HGN) was carefully isolated and attached to a Dastre's electrode for nerve stimulation. […]

melting point | SMILES | inhibition of HGN stimulation-induced increases in IUP and phenylephrine-induced increases in DAP [1]
229 to 231 °C | COc1cc2nc(C3CCN(CCc4c[nH]c5cc(F)ccc45)CC3)[nH]c(=O)c2cc1OC.Cl | 
292 to 294 °C | Cl.O=c1[nH]c(C2CCN(CCc3c[nH]c4cc(F)ccc34)CC2)nc2ccc(Cl)cc12 | 
283 °C (dec.) | Cl.O=c1[nH]c(C2CCN(CCc3c[nH]c4ccc(F)cc34)CC2)nc2cc(F)ccc12 | 
195 to 197 °C | Cl.Cl.O=c1[nH]c(C2CCN(CCc3c[nH]c4cc(F)ccc34)CC2)nc2ccc(F)cc12 | 
230 to 232 °C | COc1ccc2nc(C3CCN(CCc4c[nH]c5cc(F)ccc45)CC3)[nH]c(=O)c2c1.Cl | 
215 to 217 °C | Cl.Cl.O=c1[nH]c(C2CCN(CCc3c[nH]c4cc(F)ccc34)CC2)nc2cc(F)c(F)cc12 | 
256 to 266 °C | Cl.O=c1[nH]c(C2CCN(CCc3c[nH]c4cc(F)ccc34)CC2)nc2cc(Cl)ccc12 | 
205 to 209 °C | Cl.O=c1[nH]c(C2CCN(CCc3c[nH]c4cc(F)ccc34)CC2)nc2cc(F)ccc12 | 

The remaining lines, values behind:

SMILES | melting point | inhibition of HGN stimulation-induced increases in IUP and phenylephrine-induced increases in DAP [1]
COc1cc2nc(N3CCN(C(=O)c4ccco4)CC3)nc(N)c2cc1OC [prazosin] |  | inhibited increases in IUP and DAP in similar fashion
Cl.O=c1[nH]c(C2CCN(CCc3c[nH]c4ccccc34)CC2)nc2cc(F)ccc12 | 220 to 225 °C | 
Cl.Cl.O=c1[nH]c(C2CCN(CCc3c[nH]c4ccccc34)CC2)nc2cc(Cl)ccc12 | 190 to 195 °C | 
Cl.O=c1[nH]c(C2CCN(CCc3c[nH]c4cc(F)ccc34)CC2)nc2ccccc12 | 263 to 264 °C | 
O=c1[nH]c(C2CCN(CCc3c[nH]c4ccccc34)CC2)nc2ccccc12 (as salt: hydrochloride) | 268 to 270 °C | 
Cl.O=c1[nH]c(C2CCN(CCc3c[nH]c4ccc(F)cc34)CC2)nc2cc(Cl)ccc12 | 300 °C (dec.) | 
Cl.O=c1[nH]c(C2CCN(CCc3c[nH]c4ccc(F)cc34)CC2)nc2ccc(Cl)cc12 | 290 °C (dec.) | 
Cl.O=c1[nH]c(C2CCN(CCc3c[nH]c4ccc(F)cc34)CC2)nc2ccccc12 | 298 to 301 °C | 

Reference: patent publication US6376500B2, “Substituted 2-(4-piperidyl)-4(3H)-quinazolinones and 2-(4-piperidyl)-4(3H)-azaquinazolinones” (Syntex (U.S.A.) LLC, priority 1999, dated 2002)
